Experiments:
[1] = target: T1, 3-hydroxy-3-methylglutaryl-coenzyme A reductase (Rattus norvegicus) (UniProt P51639); experiment: Inhibition of partially purified rat liver HMG CoA reductase at 10 ug/ml concentration
T1 sequence (whole entry): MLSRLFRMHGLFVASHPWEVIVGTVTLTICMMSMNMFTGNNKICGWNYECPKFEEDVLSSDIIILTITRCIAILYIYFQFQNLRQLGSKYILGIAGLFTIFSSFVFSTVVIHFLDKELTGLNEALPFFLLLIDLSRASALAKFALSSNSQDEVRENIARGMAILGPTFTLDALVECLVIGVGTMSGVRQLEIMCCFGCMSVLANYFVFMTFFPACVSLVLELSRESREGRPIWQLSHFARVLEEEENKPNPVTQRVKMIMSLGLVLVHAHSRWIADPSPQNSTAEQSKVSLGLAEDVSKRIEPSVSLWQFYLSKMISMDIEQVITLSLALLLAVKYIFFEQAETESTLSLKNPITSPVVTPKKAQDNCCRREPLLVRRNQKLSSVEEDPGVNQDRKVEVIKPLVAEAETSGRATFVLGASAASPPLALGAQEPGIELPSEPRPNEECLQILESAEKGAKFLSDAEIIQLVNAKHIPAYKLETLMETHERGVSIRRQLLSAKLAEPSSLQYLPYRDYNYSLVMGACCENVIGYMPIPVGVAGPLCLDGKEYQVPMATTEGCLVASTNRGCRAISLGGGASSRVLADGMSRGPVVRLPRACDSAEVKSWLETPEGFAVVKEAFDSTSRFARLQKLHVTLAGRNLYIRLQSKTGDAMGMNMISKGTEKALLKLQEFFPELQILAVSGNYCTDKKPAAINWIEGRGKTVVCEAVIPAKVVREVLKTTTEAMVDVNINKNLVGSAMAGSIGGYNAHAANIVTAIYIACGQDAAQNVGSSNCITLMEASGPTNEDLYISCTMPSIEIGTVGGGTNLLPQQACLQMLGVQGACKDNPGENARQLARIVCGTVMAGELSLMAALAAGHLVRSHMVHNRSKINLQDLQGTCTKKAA

[2] = target: T1, 3-hydroxy-3-methylglutaryl-coenzyme A reductase (Rattus norvegicus); experiment: Inhibitory activity against partially purified rat liver HMG CoA reductase at 20 ug/ml concentration
[3] = target: T1, 3-hydroxy-3-methylglutaryl-coenzyme A reductase (Rattus norvegicus); experiment: Inhibitory activity against partially purified rat liver HMG CoA reductase at 5 ug/ml concentration
[4] = target: T1, 3-hydroxy-3-methylglutaryl-coenzyme A reductase (Rattus norvegicus); experiment: Inhibitory activity against partially purified rat liver HMG CoA reductase at 50 ug/ml concentration
[5] = target: T1, 3-hydroxy-3-methylglutaryl-coenzyme A reductase (Rattus norvegicus); experiment: Inhibitory activity against partially purified rat liver HMG CoA reductase at 2 ug/ml concentration
[6] = target: T1, 3-hydroxy-3-methylglutaryl-coenzyme A reductase (Rattus norvegicus); experiment: Inhibitory activity against partially purified rat liver HMG CoA reductase at 25 ug/ml concentration
[7] = target: T1, 3-hydroxy-3-methylglutaryl-coenzyme A reductase (Rattus norvegicus); experiment: Inhibitory activity against partially purified rat liver HMG CoA reductase at 4 ug/ml concentration
[8] = target: T1, 3-hydroxy-3-methylglutaryl-coenzyme A reductase (Rattus norvegicus); experiment: Relative potency against HMG CoA reductase
[9] = target: T1, 3-hydroxy-3-methylglutaryl-coenzyme A reductase (Rattus norvegicus); experiment: Inhibitory activity against partially purified rat liver HMG CoA reductase at 1 ug/ml concentration
[10] = target: T1, 3-hydroxy-3-methylglutaryl-coenzyme A reductase (Rattus norvegicus); experiment: Inhibitory activity against partially purified rat liver HMG CoA reductase at 4 ug/mL concentration
[11] = target: T1, 3-hydroxy-3-methylglutaryl-coenzyme A reductase (Rattus norvegicus); experiment: Inhibitory activity against partially purified rat liver HMG CoA reductase at 8 ug/ml concentration
[12] = target: T1, 3-hydroxy-3-methylglutaryl-coenzyme A reductase (Rattus norvegicus); experiment: Inhibitory activity against partially purified rat liver HMG CoA reductase at 3.125 ug/ml concentration
[13] = target: T1, 3-hydroxy-3-methylglutaryl-coenzyme A reductase (Rattus norvegicus); experiment: Inhibitory activity against partially purified rat liver HMG CoA reductase at 0.625 ug/ml concentration
[14] = target: T1, 3-hydroxy-3-methylglutaryl-coenzyme A reductase (Rattus norvegicus); experiment: Inhibitory activity against partially purified rat liver HMG CoA reductase at 1 ug/mL concentration
[15] = target: T2, 3-hydroxy-3-methylglutaryl-coenzyme A reductase (Rattus norvegicus, UniProt P51639); experiment: In vitro inhibitory activity against HMG CoA reductase
T2 sequence (P51639 whole entry): T1 sequence (whole entry)

[16] = target: T1, 3-hydroxy-3-methylglutaryl-coenzyme A reductase (Rattus norvegicus); experiment: Inhibitory activity against partially purified rat liver HMG CoA reductase at 0.1 ug/ml concentration
[17] = target: T1, 3-hydroxy-3-methylglutaryl-coenzyme A reductase (Rattus norvegicus); experiment: Inhibitory activity against partially purified rat liver HMG CoA reductase at 0.8 ug/ml concentration
[18] = target: T1, 3-hydroxy-3-methylglutaryl-coenzyme A reductase (Rattus norvegicus); experiment: Inhibitory activity against partially purified rat liver HMG CoA reductase at 0.2 ug/ml concentration
[19] = target: T1, 3-hydroxy-3-methylglutaryl-coenzyme A reductase (Rattus norvegicus); experiment: Inhibitory activity against partially purified rat liver HMG CoA reductase at 0.4 ug/ml concentration
[20] = target: T1, 3-hydroxy-3-methylglutaryl-coenzyme A reductase (Rattus norvegicus); details: 1.4 ug/ml
Description: Inhibitory activity against partially purified rat liver HMG CoA reductase at 1.4 ug/ml concentration

[21] = target: T1, 3-hydroxy-3-methylglutaryl-coenzyme A reductase (Rattus norvegicus); experiment: Inhibitory activity against partially purified rat liver HMG CoA reductase at 0.75 ug/ml concentration
[22] = target: T1, 3-hydroxy-3-methylglutaryl-coenzyme A reductase (Rattus norvegicus); experiment: Inhibitory activity against partially purified rat liver HMG CoA reductase at 0.35 ug/ml concentration
[23] = target: T1, 3-hydroxy-3-methylglutaryl-coenzyme A reductase (Rattus norvegicus); experiment: Inhibitory activity against partially purified rat liver HMG CoA reductase at 1.0 ug/ml concentration
[24] = target: T1, 3-hydroxy-3-methylglutaryl-coenzyme A reductase (Rattus norvegicus); experiment: Inhibitory activity against partially purified rat liver HMG CoA reductase at 12.5 ug/ml concentration
[25] = target: T1, 3-hydroxy-3-methylglutaryl-coenzyme A reductase (Rattus norvegicus); experiment: Inhibitory activity against partially purified rat liver HMG CoA reductase at 6 ug/ml concentration

Structure (SMILES): O=C1C[C@@H](O)C[C@@H](/C=C/c2ccc(Cl)cc2Cl)O1 (racemic)
- inhibition [1]: 27%
- inhibition [2]: 17%
- inhibition [3]: 6%
- inhibition [4]: 18%
- inhibition [5]: 4%

Structure (SMILES): CC1=CC(=O)OC(/C=C/c2ccc(Cl)cc2Cl)C1 (stereo unspecified)
- inhibition [1]: 3%
- inhibition [6]: 5%
- inhibition [7]: 3%
- inhibition [5]: 0%

Structure (SMILES): O=C1C[C@H](O)C[C@@H](/C=C/c2ccc(Cl)cc2Cl)O1 (racemic) [listing 1 of 2 here]
- inhibition [1]: 64%
- Relative potency [8]: 0.08
- inhibition [2]: 84%
- inhibition [9]: 13%
- inhibition [3]: 41%

Structure (SMILES): NC(=O)C[C@H](O)C[C@H](O)/C=C/c1ccc(Cl)cc1Cl
- inhibition [10]: 0%
- inhibition [9]: 0%
- inhibition [11]: 0%
- inhibition [5]: 0%

Structure (SMILES): O=C1C[C@@H](O)C[C@H](/C=C\c2ccc(Cl)cc2Cl)O1
- inhibition [12]: 0%
- inhibition [13]: 0%

Structure (SMILES): O=C1C[C@H](O)CC(CCC2CCCCC2)O1 (stereo partly specified)
- inhibition [1]: 6%
- inhibition [2]: 17%
- inhibition [3]: 23%
- inhibition [4]: 34%

Structure (SMILES): COC(/C=C/c1ccc(Cl)cc1Cl)CC(O)CC(=O)O (stereo unspecified)
- inhibition [1]: 0%
- inhibition [14]: 0%
- inhibition [3]: 0%
- inhibition [5]: 0%

Structure (SMILES): CC[C@H](C)C(=O)O[C@H]1CCC=C2C=C[C@H](C)[C@H](CC[C@@H]3C[C@@H](O)CC(=O)O3)[C@H]21 [MEVASTATIN]
- Relative potency [8]: 100
- IC50 [15]: 0.01 µM

Structure (SMILES): O=C1C[C@H](O)CC(C=C(c2ccccc2)c2ccccc2)O1 (stereo partly specified)
- inhibition [16]: 22%
- inhibition [17]: 20%
- inhibition [18]: 36%
- inhibition [19]: 14%

Structure (SMILES): O=C1C[C@H](O)C[C@@H](/C=C/c2ccccc2)O1
- inhibition [1]: 15%
- inhibition [2]: 14%
- inhibition [3]: 3%
- inhibition [4]: 31%

Structure (SMILES): O=C1C[C@H](O)C[C@@H](CC[C@@H]2CCC[C@@H]3CCCC[C@@H]32)O1
- inhibition [1]: 22%
- inhibition [2]: 44%
- inhibition [3]: 15%
- inhibition [4]: 70%
- IC50 [15]: 107 µM

Structure (SMILES): O=C1C[C@H](O)C[C@@H](C=C2c3ccccc3-c3ccccc32)O1
- Relative potency [8]: 1.5
- inhibition [16]: 25%
- inhibition [17]: 81%
- inhibition [18]: 48%
- inhibition [20]: 61%
- IC50 [15]: 0.89 µM

Structure (SMILES): O=C1C=C(O)OC(/C=C/c2ccc(Cl)cc2Cl)C1 (stereo unspecified)
- inhibition [1]: 12%
- inhibition [4]: 15%
- inhibition [5]: 0%

Structure (SMILES): O=C1C[C@H](O)C[C@@H](/C=C/c2ccc(Cl)cc2Cl)O1 (stereo in doubt; 6a(-))
- inhibition [9]: 0%
- inhibition [11]: 0%
- inhibition [7]: 0%
- inhibition [5]: 0%

Structure (SMILES): O=C1C[C@H](O)C[C@@H](COc2ccc(Cl)cc2Cl)O1
- inhibition [1]: 21%
- inhibition [9]: 21%
- inhibition [7]: 18%
- inhibition [5]: 24%

Structure (SMILES): O=C1C[C@H](O)C[C@@H](/C=C/c2cccc3ccc4ccccc4c23)O1
- inhibition [21]: 58%
- Relative potency [8]: 1.1
- inhibition [22]: 39%
- inhibition [23]: 64%
- IC50 [15]: 1.9 µM

Structure (SMILES): O=C1C[C@H](O)CC(c2cccc3ccccc23)O1 (stereo partly specified)
- inhibition [1]: 9%
- inhibition [2]: 7%
- inhibition [3]: 16%
- inhibition [4]: 18%

Structure (SMILES): C[C@]1(O)CC(=O)O[C@H](CCc2ccc(Cl)cc2Cl)C1
- Relative potency [8]: 0.08
- inhibition [9]: 14%
- inhibition [11]: 63%
- inhibition [7]: 37%
- inhibition [5]: 26%
- IC50 [15]: 19.8 µM

Structure (SMILES): C[C@@]1(O)CC(=O)O[C@H](/C=C/c2ccc(Cl)cc2Cl)C1
- inhibition [1]: 5%
- inhibition [6]: 15%
- inhibition [7]: 7%
- inhibition [5]: 3%

Structure (SMILES): O=C1C[C@H](O)C[C@@H](/C=C/c2ccc(Cl)cc2Cl)O1 (racemic) [listing 2 of 2 here]
- IC50 [15]: 22 µM

Structure (SMILES): O=C1C[C@H](O)C[C@@H](/C=C/c2ccc(Cl)cc2Cl)O1 (stereo in doubt; 6a(+)) [listing 1 of 2 here]
- inhibition [1]: 72%
- Relative potency [8]: 0.16
- inhibition [2]: 86%
- inhibition [9]: 26%
- inhibition [3]: 66%
- inhibition [5]: 45%

Structure (SMILES): O=C1C[C@H](O)C[C@@H](C#Cc2ccc(Cl)cc2Cl)O1
- inhibition [12]: 8%
- inhibition [13]: 0%

Structure (SMILES): CO[C@@H]1C[C@H](O)C[C@@H](/C=C/c2ccc(Cl)cc2Cl)O1
- inhibition [1]: 0%
- inhibition [11]: 6%
- inhibition [7]: 0%
- inhibition [5]: 0%

Structure (SMILES): O=C1C[C@H](O)C[C@@H](C=C2c3ccccc3C=Cc3ccccc32)O1
- Relative potency [8]: 0.9
- inhibition [16]: 20%
- inhibition [18]: 34%
- inhibition [19]: 42%
- IC50 [15]: 1.6 µM

Structure (SMILES): O=C1C[C@H](O)C[C@@H](/C=C/c2ccc(Cl)cc2Cl)O1 (stereo in doubt; 6a(+)) [listing 2 of 2 here]
- IC50 [15]: 10.8 µM

Structure (SMILES): O=C1C[C@H](O)CC(c2ccc(Cl)cc2Cl)O1 (stereo partly specified)
- inhibition [1]: 26%
- inhibition [2]: 27%
- inhibition [3]: 4%
- inhibition [4]: 23%

Structure (SMILES): O=C1C[C@H](O)CC(CCCc2cccc3ccccc23)O1 (stereo partly specified)
- inhibition [1]: 25%
- inhibition [3]: 7%
- inhibition [6]: 35%
- inhibition [5]: 11%

Structure (SMILES): O=C1C[C@H](O)CC(CCC23CC4CC(CC(C4)C2)C3)O1 (stereo partly specified)
- inhibition [9]: 18%
- inhibition [3]: 16%
- inhibition [24]: 28%

Structure (SMILES): C[C@]1(O)CC(=O)O[C@H](/C=C/c2ccc(Cl)cc2Cl)C1
- inhibition [1]: 61%
- Relative potency [8]: 0.09
- inhibition [9]: 11%
- inhibition [7]: 36%
- inhibition [5]: 21%
- IC50 [15]: 20 µM

Structure (SMILES): O=C1C[C@H](O)CC(CCc2cccc3ccccc23)O1 (stereo partly specified)
- inhibition [1]: 29%
- inhibition [2]: 45%
- inhibition [3]: 19%
- inhibition [4]: 61%
- IC50 [15]: 129 µM

Structure (SMILES): O=C1C[C@H](O)CC(CC[C@@H]2CC[C@H]3CCCC[C@@H]3C2)O1 (stereo partly specified)
- inhibition [9]: 1%
- inhibition [3]: 13%
- inhibition [24]: 28%
- IC50 [15]: 90 µM

Structure (SMILES): O=C1C[C@H](O)C[C@@H](C2CCCCC2)O1
- inhibition [1]: 0%
- inhibition [2]: 6%
- inhibition [3]: 1%
- inhibition [4]: 36%

Structure (SMILES): CO[C@H]1C[C@H](O)C[C@@H](/C=C/c2ccc(Cl)cc2Cl)O1
- inhibition [25]: 4%
- inhibition [7]: 2%
- inhibition [5]: 0%

Structure (SMILES): O=C1C[C@H](O)C[C@@H](CCc2ccc(Cl)cc2Cl)O1
- inhibition [1]: 80%
- inhibition [9]: 29%
- inhibition [3]: 57%
- inhibition [5]: 38%
- IC50 [15]: 15.2 µM
